Measurements from patent US9416353B2, “Covalent tethering of functional groups to proteins and substrates therefor” (Promega Corporation, priority 2004, dated 2016).

Columns and labels:
[1] = target: hR.Luc-connector-DhaA.H272F-Flag (UniProt P0A3G2+P27652, H272F/T2A); format: cell-based; conditions: Western blot, anti-R.Luc antibody
[2] = target: R.Luc-connector-DhaA.H272F (UniProt P0A3G2+P27652, H272F/T2A); format: binding; conditions: pretreatment with non-biotinylated substrate

Row | Molecule | hR.Luc-connector-DhaA.H272F-Flag fusion protein captured [1] | decrease of the efficiency of capturing [2]
1 | O=C(CCCC[C@@H]1SC[C@@H]2NC(=O)N[C@@H]21)NCCOCCOCCCCCCCl [biotin-C10H21NO2—Cl, N-{2-[2-(6-Chlorohexyloxy)-ethoxy]ethyl}-biotin-amide] | more than 50% | –
2 | N-{2-[2-(6-Chlorohexyloxy)-ethoxy]-ethyl}-tetramethylrhodamine-5-(and -6)-amide | – | about 80%
